In PMC8179515 (Chemical Science, 2021):

Legend:
monomeric amyloid-β = details: cited from earlier work
Aβ1-42 oligomers (Aβo) = Aβ1-42 oligomers (Aβo) (Homo sapiens, UniProt P05067); type: binding
albumin = details: cited from earlier work

Aβ1-42 oligomers (Aβo), sequence (P05067 672-713): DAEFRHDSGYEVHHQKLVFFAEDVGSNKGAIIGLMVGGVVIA

Molecule: solanezumab
- affinity for central epitope KLVFFAED (monomeric amyloid-β): picomolar affinity

Molecule: C=C(c1ccc(C(=O)O)cc1)c1cc2c(cc1C)C(C)(C)CCC2(C)C [Bexarotene]
- Highest% STD (Aβ1-42 oligomers (Aβo)): 14.60%

Molecule: CC(C(=O)O)c1ccc(-c2ccccc2)c(F)c1 (stereo not drawn) [flurbiprofen]
- bound to albumin (albumin): > 99%
